According to a melting point compilation (Tetko et al.; mined from patent text by program, amines drawn as free bases though some values may be those of a salt):

| melting point [°C] | Compound |
| --- | --- |
| 154 to 155 | CC(C)(C)C(S)(CC#N)C(C)(C)C |
| 167 to 169 | C/C(=N\OC(=O)C1CCN(C(=O)OC(C)(C)C)CC1)[C@H]1CC[C@H]2[C@@H]3CCC4=CC(=O)CC[C@]4(C)[C@H]3CC[C@]12C |
| 126 to 128 | COC1(c2cc(F)cc(OCc3ccc(N(C)S(C)(=O)=O)c(Cl)c3)c2)CCOCC1 |
| 87 to 89 | Cc1cc(OCC(O)CCCl)ccc1Cl (stereo not given) |
| 172 to 173 | FC(F)(F)c1ccc(-c2cc(Oc3cccc4ccc(Cl)nc34)ncn2)cc1 |
| 135 to 136 | CCCCCCC(CCC(=O)OC)n1cnc(NC(=O)c2ccccc2C(=O)O)c1 (stereo not given) |
| 92 to 93.5 | Cc1cccc(C)c1CCCN1C(=O)c2ccccc2C1=O |
| 149 to 152 | CC(=O)NC[C@H]1CN(c2ccc(C3=CCN(C=O)CC3)cc2)C(=O)O1 |
| 234 to 236 | CC(C)(C)c1ccc(C(=O)n2c3cc(O)c(O)cc3c3ccc(O)c(O)c32)cc1 |
| 242 to 243 | CS(=O)(=O)c1ccc2c3c(cccc13)C(=O)N2 |
| 124 to 126 | O=C1N(Cc2ccc(-c3ccccc3C(F)(F)F)o2)c2ccccc2C12COc1cc3c(cc12)OCO3 (stereo not given) |
| 194 to 195 | Cn1cc2c3c(cccc31)C(=O)NCC2 |
| 300 to 305 | O=C(O)c1ccc2cc(-c3cc4c(c(C56CC7CC(CC(C7)C5)C6)c3)OCO4)ccc2c1 |
| 156 to 162 | CC(=O)N1CCCc2c(c3ccc(-n4ccc(-c5ccc(C(F)(F)F)nc5)cc4=O)cc3n2C)C1 |
| 148 to 150 | COc1ccc2ccc(C(=O)CNC(=O)Cc3ccccc3)cc2c1 |
| 153 to 155 | O=C1CCC(N2Cc3c(OCc4ccc(CN5Cc6ccccc6C5)cc4)cccc3C2=O)C(=O)N1 (stereo not given) |
| 49 to 50 | C#CCC1(C2CCC3C(O[Si](C)(C)C(C)(C)C)CCCC32C)CC1 (stereo not given) |
| 206 to 208 | CCCSc1cc2c(c3c1OC(C)(C)C3)C(c1cccc(C(=O)O)c1)=NC(C)(C)C2 |
| 180 | ON=C(c1cccs1)c1cccc2nc(N[C@@H]3CCc4ccccc43)ccc12 |
| 166 to 168 | COc1ccc(-c2cc(=O)n(Cc3ccc(OC)c(F)c3)nc2-c2ccc(OC)cc2)cc1 |
| 217 to 218 | CCCCOCCOc1ccc(-c2cc3c4c(c2)CCN4CCCC(C(=O)O)=C3)cc1 |
| 155 to 162 | CC(=O)Oc1ccc(-n2c(-c3ccccc3)cc3c2CCCC3)cc1C(=O)O |
| 152 | CCN(CC)CCNc1ccc2c3c(nn2CCN(CC)CC)-c2c(O)ccc(O)c2C(=O)c13 |
| 205 to 207 | O=C(Cc1c[nH]c2ccccc12)Nc1ccccc1C(=O)O |

| melting point [°C] | Compound |
| --- | --- |
| 192 to 194 | Cc1oc(-c2ccccc2)nc1CCOc1ccc(C(=O)O)c(O)c1 |
| 137 to 140 | Oc1ccc(C2=COc3ccccc3O2)cc1 |
| 166 | CC(=O)OC1CSC(Oc2cncc(-c3cccs3)c2)C(OC(C)=O)C1OC(C)=O (stereo not given) |
| 204 | Cc1nc(NC(=N)N)sc1C(=O)Nc1cccc(OCC(=O)OC(C)(C)C)c1 |
| 75 | COC[C@@H]1CCCN1S(=O)(=O)c1ccc(Cl)c(COc2cccc3c(-n4cccn4)cc(C)nc23)c1Cl |
| 157 to 159 | Cc1nsc(SCC2=C(C(=O)OC(c3ccccc3)c3ccccc3)N3C(=O)C(N)(N)C3SC2)n1 (stereo not given) |
| 204 | Cc1cc2cc(CN3CCCCCC3)cnc2cc1NC(=O)c1ccc(-c2ccc(Cl)cc2)cc1 |
| 160 to 162 | COc1cc(OC)c(-c2cccs2)cc1/C=C/C(=O)c1ccc(S(=O)(=O)NCCCn2ccnc2)cc1 |
| 142 to 143 | Cc1ccc(CCOc2ccnc3c(OCCc4ccc(C)cc4)cccc23)cc1 |
| 130 to 131 | CCCC1CCC2C3CCc4cc(O)ccc4C3CCC12C (stereo not given) |
| 190 | c1cc2c(ccc3[nH]c4c(c32)CNCC4)s1 |
| 154 to 155 | Cc1nn(CC(F)(F)COCc2ccccc2)c(-c2ccc(F)cc2)c1-c1ccc2c(c1)NC(=O)CO2 |
| 83 | CS(=O)(=O)c1cc(C(O)C2CCCCC2)c2ccccc2n1 (stereo not given) |
| 228 to 230 | Cc1c(F)c(N2CCC(n3ccnn3)C2)c(F)c2c1c(=O)c(C(=O)O)cn2C1CC1 (stereo not given) |
| 178 to 179 | CC(C=O)(CCc1c[nH]c2ccccc12)NC(=O)OC1C2CC3CC(C2)CC1C3 (stereo not given) |
| 345 to 347 | CC1(C)CCn2c(nc(-c3ccccn3)cc2=O)N1 |
| 237 to 240 | O=C(O)c1cccc(C(=O)C=Cc2cccc(C=Cc3ccc4ccccc4n3)c2)c1O |
| 84 to 86 | CC(C)CCCC(C)C1CCC2C3CC=C4CC(N=[N+]=[N-])CCC4(C)C3CCC12C (stereo not given) |
| 119 to 120 | CCOC(=O)c1cc2c(nc1C)C(=Cc1ccco1)CCC2 |
| 94 to 95 | C=CCn1c(=Nc2ccccc2)sc2ncccc2c1=O |
| 103 to 105 | Clc1nc(N2CCOCC2)c2ccccc2n1 |
| 152 to 154 | Cc1ccc(C(C)CC(=O)NC(C)c2ccc(NS(C)(=O)=O)c(F)c2)cc1C (stereo not given) |
| 176 to 178 | Nc1ccccc1S(=O)c1nc2cc(Cl)ccc2[nH]1 (stereo not given) |
| > 220 | O=C(NCc1ccccc1)c1cn2c(=O)n(Cc3ccc(Cl)cc3)c(=O)cc2s1 |

| melting point [°C] | Compound |
| --- | --- |
| 229 to 231 | CCC(=O)c1cc(Cl)c(Cl)c2c1OCC(C(=O)O)O2 (stereo not given) |
| 252 | CCC(CCNC(=O)C(C#N)=Cc1ccc(O)c(O)c1)NC(=O)C(C#N)=Cc1ccc(O)c(O)c1 (stereo not given) |
| 296 | O=C1Nc2ccc(I)cc2C1=NNC(=O)c1ccc(Oc2ccccc2)cc1 |
| 176 to 178 | N=C(NO)C1C=Cc2ccccc2N1C(=O)c1ccccc1 (stereo not given) |
| 156 | CNC(=O)Nc1ccc(Cl)c(Cl)c1 |
| 234 to 235 | Sc1nc2ccccc2n1Cc1c(Cl)cccc1Cl |
| 212 to 213 | CN1CCN(c2ccc(Nc3ncc4ccc(-c5cccc6c5OCCO6)n4n3)cc2)CC1 |
| 82 to 84 | CCCn1cncc1CSc1ccc(NC(=O)C(F)(F)F)cc1 |
| 198 to 203 | CC(=O)N1CCC(CCCCC(=O)O)CC1 |
| 276 to 279 | COc1ccc(C(=O)NC(=O)Nc2cccc3c2CC(=O)N3)cc1 |
| 196 to 198 | CC(=O)Oc1ccc(-c2ccccc2)cc1C1(OC(C)=O)C(=O)c2ccccc2C1=O |
| 133 to 134 | CC(Oc1ccc(Oc2ccc(C#N)cc2)cc1)C(=O)Nc1ccccc1 (stereo not given) |
| 148 to 153 | O=C(O)CCC(=O)c1ccc(-c2ccccc2F)cc1 |
| 214 to 216 | CCCCc1oc2ccccc2c1-c1ncc(-c2ccc3cc(OCC(=O)O)ccc3c2)o1 |
| 51 to 52 | C[Si](C)(CCCSCCCNC(=O)n1cc(F)c(=O)[nH]c1=O)c1ccccc1 |
| 133 to 134 | Cc1ccc(C(C)C)c2oc(SCCN3CCN(CC(=O)Nc4c(C(C)C)cccc4C(C)C)CC3)nc12 |
| 118 to 120 | CC(C)OCCNS(=O)(=O)NC(=O)OCCCc1ccc(OCc2ccco2)cc1Oc1ncc(C(F)(F)F)cc1Cl |
| 160 | COc1c(C)cc(C(=O)c2cc(-c3ccc(Cl)cc3)c(N3CCOCC3)s2)nc1C |
| 145 to 147 | COC(=O)c1ccc(OCC(=O)c2cc3cc(Cl)ccc3o2)cc1 |
| 48 to 49 | CCOC(=O)C(Cc1ccc(C(F)(F)F)cc1)C(=O)c1ccc(F)c(F)c1 (stereo not given) |
| > 300 | CC(C)(N)[C@@H]1CCN(c2cc3c(c(N)c2F)c(=O)c(C(=O)O)cn3C2CC2)C1 |
| 193 to 195 | CCOC(=O)CCc1c(-c2cc(Cl)ccc2OC)c2cc(C(F)(F)F)ccc2[nH]c1=O |
| 77 | CC(=CC(=O)O)CCCCCCCCCCCCC(=O)O |
| 148 to 150 | CN1C(=O)CC[C@]2(C)c3ccc(-c4ccc(C#N)cc4)cc3CC[C@@H]12 |

| melting point [°C] | Compound |
| --- | --- |
| < 50 | CCSCCn1c(=N)sc2cc(C(F)(F)C(F)(F)F)ccc21 |
| 122 to 128 | CCOC(=O)c1cn(C)c2ccsc2c1=O |
| 110 to 111 | CCCOc1ccccc1-c1nc2ncccc2c(=O)[nH]1 |
| 247 to 248 | CCc1noc(-c2ncc3[nH]c4ccc(C5CC=CCC5)cc4c3c2C)n1 (stereo not given) |
| 165 to 166 | COc1ccc(-c2cc(C3CCN(C(=O)c4ccccc4)CC3)nc(N)n2)cc1 |
| 170 to 171 | COc1cc2cc(-c3ccccc3Cl)sc2c(Cl)c1Cl |
| 284 to 286 | CNc1nc(Nc2ccc(Cl)c(Cl)c2)ncc1NC(=O)C(C)C |
| 160 to 163 | CC(=O)c1ccc2ccn(S(=O)(=O)c3ccccc3)c2c1 |
| > 300 | O=C(O)CN=C(O)c1ccc(C(O)=NCC(=O)O)c2c(C(=O)O)ccc(C(=O)O)c12 |
| 70 to 72 | COc1ccc(C=CCCl)cc1 |
| 338 to 339 | O=c1c2cn(Cc3ccccc3F)c3ccccc3c-2nn1-c1ccc(Cl)cc1 |
| 135 to 138 | COc1ccc(C(=O)O)cc1CCCN(C)C |
| 90 to 93 | COc1ccc(C2(C)C(=O)c3c(N4CCN(C)CC4)cc(Cl)cc3N(Cc3cccc(N)c3)C2=O)cc1 (stereo not given) |
| 110 to 111 | CCCCc1nn(-c2ccc(C(F)(F)F)cn2)cc1CO |
| 118 to 120 | CC(C)(C)c1nn(-c2c(Cl)cc(C(F)(F)F)cc2Cl)c(Cl)c1-c1nc(C#N)c(C#N)[nH]1 |
| 147 to 148 | CC(C)C(=O)N1CCNC1=Nc1ccc(Cl)cc1Cl |
| 117 to 120 | COc1ccc(Cl)cc1NC(=NN)c1cc(C(F)(F)F)cc(C(F)(F)F)c1 |
| 149 to 150 | Cc1ccc2c3c(ccc2n1)OC[C@H](CN1CCC(Oc2ccc4c(c2)NC(=O)CO4)CC1)O3 |
| 149 to 150 | CCS(=O)(=O)Nc1cc(-c2ncnc(Cl)c2Cl)c(F)cc1C#N |
| 133 to 135 | CCOc1c(Cl)cc(C(C)(C)N2CC(C)=C(c3ccccc3)C2=O)cc1Cl |
| 209 to 212 | CC(C)c1cccc(C(C)C)c1NC(=O)C(Cc1ccc(OCc2ccccc2)cc1)NC(=O)CC(C)(C)C (stereo not given) |

| Compound | melting point [°C] |
| --- | --- |
| COC(=O)[C@@H]1C[C@H](N)C(=O)[C@H]2[C@@]1(C)CC[C@H]1C(=O)O[C@H](c3ccoc3)C[C@]21C | 237 to 240 |
| CN1CC[C@]2(c3ccccc3)CCCC[C@H]2C1 (relative stereo) | 72 to 73 |
